For 89 molecules, melting point results are on record in a melting point compilation (Tetko et al.; mined from patent text by program, amines drawn as free bases though some values may be those of a salt).

A value given as a limit tells only on which side of the number the result lay.

As for `c1ccc(-c2cn3c(n2)Cc2ccccc2C3)cc1`, the melting point – broadly, the temperature, or range, at which the solid turns liquid – was in the range of 195 to 197 °C.
As for `Cc1cc(C(=O)NC2CC(C)(C)NC(C)(C)C2)c(C)o1`, the figure is 116 to 118 °C; as for `CCOc1ccccc1C(=O)NC(=O)NC1CN2CCC1CC2` (centres undefined), 198 to 199 °C; as for `Cc1ccc(S(=O)(=O)c2ncc(I)cn2)cc1`, 138 to 139 °C.
As to `O=C(Cl)c1cc(Oc2ccc(Br)cc2)cc(C(=O)Cl)c1`, the melting point fell in the range of 80 to 81 °C.
Turning to `Nc1ncc(S(=O)c2ccc(C(F)(F)F)cn2)s1` (centres undefined), the melting point lay within 144 to 145 °C.
`Cc1cc(CN(C(=O)CCl)c2c(C)cccc2C)on1`: the melting point fell in the range of 78 to 82 °C.
In turn, `c1ccc(Oc2ccc(C3(Cn4cncn4)OCCCO3)cc2)cc1` came in with a melting point of 129 to 130 °C.
`Cc1cc2c(cc1-c1ccc(C=O)s1)C(C)(C)CCC2(C)C` returned a melting point of 130 to 135 °C.
Molecule `CCOc1cc(OCc2ccccc2OCc2nc(-c3ccccc3)oc2C)ccc1CCC(=O)O` displayed a melting point of 112 to 113 °C.
In the case of `COc1cc(C(=O)c2c(N)sc3c2CCN(Cc2ccccc2)C3)ccc1OC(C)C` it was 113 to 114 °C; in that of `COc1ccccc1N1CCc2c1c1cccc(C)c1[nH]c2=O`, 193 to 195 °C; in that of `Nc1nc(SCc2ccccc2)nn1-c1nnc(-c2ccccc2O)s1`, 198 to 201 °C.
Turning to `CC(C)COc1ccccc1C1=NC(=O)C2=NC=NC2=N1`, the melting point lay in the range of 272 to 273 °C.
In turn, `CCN1CCN(CC/C=C/c2ccc3c(Nc4ccc(Sc5nccn5C)c(Cl)c4)c(C#N)cnc3c2)CC1` had a melting point of 194 to 204 °C.
`CSc1nn(C(=O)NC(C)CCl)c(=O)n1N` (centres undefined): the melting point turned out to be 136 °C.
As for `COc1cccc2c1C(=O)c1c(O)c3c(c(O)c1C2=O)CC(O)(C(C)=O)CC3O` (centres undefined), the figure is 217 to 221 °C; as for `CC(=O)Nc1c(C(=S)c2ccc(C)cc2)[nH]c2cc(Cl)ccc12`, 187 to 188 °C; as for `O=S1(=O)N(CCCN2CCN(c3ccc(F)cc3)CC2)c2cccc3c2N1CCC3`, 98 °C.
As for `O=C(O)c1ccc(N2C(=O)c3cccc([N+](=O)[O-])c3C2=O)cc1`, the melting point was above 300 °C.
With `COc1cc(C(=O)c2ccccc2F)cc([N+](=O)[O-])c1O`, the melting point was 127 to 129 °C.
`CCC1CC(=Cc2ccccc2Cl)C(=O)O1` (centres undefined) yielded a melting point of 38 to 39 °C.
As for `CC1Cc2cc(OCc3ccccc3)c(O)cc2C(=O)C1C` (centres undefined), the melting point lay in the range of 90 to 93 °C.
The molecule `CCOC(=O)c1cc(=O)cc(-c2ccc(OC)cc2)o1` displayed a melting point of 131 to 133 °C.
Take `CC(C)(C)c1ccc(OCCCCCN2CCN(c3nccs3)CC2)cc1`: the melting point lay in the range of 71 to 73 °C.
As to `NC(=S)Nc1ccccc1O`, the melting point was found to be 161 °C.
Turning to `COCC1OC(n2cnc3c(N)ncnc32)C(O)C1O` (centres undefined), the melting point lay within 112 to 114 °C.
For the molecule `O=C(Oc1ccc([N+](=O)[O-])cc1)C(O)C(O)C(=O)Oc1ccc([N+](=O)[O-])cc1` (centres undefined), the melting point lay within 163 to 164 °C.
With `CC(C)C=CC1(C(F)(F)F)OCC(=O)Nc2ccc(F)cc21` (centres undefined), the melting point lay within 145 to 156 °C.
Regarding `CS(=O)(=O)c1ccc(-c2c(-c3ccc(F)cc3)c(OCC(=O)c3cccs3)nn2CC(=O)c2cccs2)cc1`, the melting point lay in the range of 136 to 138 °C.
In the case of `C#CCn1c(=O)c2c(nc(C#Cc3cccc(O)c3)n2C)n(C)c1=O` it was 271 °C; in that of `Cc1nc2ccccc2n2cnc(-c3noc(C4CC4)n3)c12`, 165 to 167 °C.
As for `CC(C)NC(=O)CN1CCN(CC2CSC3=C(O2)c2ccccc2C(=O)C3=O)CC1` (centres undefined), the figure is 85 to 87 °C; as for `COC(=O)c1c(-c2cc(OC)c(OC)c(OC)c2)c2cc(OC)c(CC#N)cc2c(=O)n1-c1ccc(NC(=O)OC(C)(C)C)cc1`, 136 to 138 °C; as for `Cc1ccc(S(=O)(=O)N2CCC(CC(C#N)(c3ccccc3)c3ccccc3)CC2)cc1`, 130 °C.
In turn, `CCCCN(CCCC)CCCOc1ccc(C(=O)c2c(C)oc3c(NS(C)(=O)=O)cccc23)cc1` registered a melting point of 135 °C.
Molecule `C=C(C)c1ccncc1-c1c(O)cc(C(C)C(C)CCCCC)cc1O` (centres undefined) displayed a melting point of 128 to 129 °C.
`Cc1ccc(COc2ccc(C(=O)NC[C@@H](C(=O)NO)N3CCN(S(C)(=O)=O)CC3)cc2)cc1` had a melting point of 180 °C.
For the molecule `CO[C@]1(c2cc(F)cc(Sc3ccc(/C(C)=N/O)cc3)c2)CCO[C@@H](C)C1`, the melting point worked out at 105 °C.
In the case of `O=C(NO)[C@H](CNS(=O)(=O)c1ccc(OCc2ccccc2)cc1)N1CCCCC1` it was 126 °C; in that of `Cc1c(-c2ccccc2)oc2c(S)cccc2c1=O`, 115 to 118 °C.
The molecule `Cc1ccc(S(=O)(=O)N2CCN(S(=O)(=O)c3ccc(C)cc3)CC3=CC=C(CN(S(=O)(=O)c4ccc(C)cc4)CC2)S3)cc1` showed a melting point of 265 to 268 °C.
In the case of `CO/N=C(\C)[C@H]1CC[C@H]2[C@@H]3CC=C4C[C@@H](O)CC[C@]4(C)[C@H]3CC[C@]12C` it was 167 to 168 °C.
`COc1ccc(S(=O)(=O)N(Cc2ccccc2)C2(C(=O)NO)CCSCC2)cc1` showed a melting point of 179 to 181 °C.
As for `Cc1ccc(NS(=O)(=O)c2ccc(Cl)nc2)c2[nH]cc(C#N)c12`, the melting point lay within 262 to 263 °C.
In turn, `Cc1nnc(C(O)CCCCCCOc2ccc(OCc3ccccc3)cc2)o1` (centres undefined) returned a melting point of 98 to 100 °C.
`COc1ccc(NC(=O)c2ccc(-c3ccc(C(=O)N4CCCC4)cc3C)cc2)cc1N1CCN(C)CC1` had a melting point of 187 to 188 °C.
As for `COC(=O)N1CCCCc2cc(C3=NNC(=O)SC3C)ccc21` (centres undefined), the melting point was determined as 182 °C.
With `Cc1ccn2cc(CCc3ccc4nc(N=CN(C)C)oc4c3)nc2c1`, the melting point lay within 150 to 151 °C.
The molecule `CN(C)CC#CCN1CCNC1=O` gave a melting point of 83 to 87 °C.
On to `CNC(=O)c1cnn(-c2ccc(Cl)cc2C(F)(F)F)c1C#N`, for which the melting point was in the range of 162 to 164 °C.
As for `CCOCc1c2ccccc2cc2ccccc12`, the figure is 74 to 75 °C; as for `COC(=O)c1ccc(C(=O)NS(=O)(=O)c2ccc(C(=O)NCCc3ccc(OC)cc3)cc2)cn1`, 240 to 242 °C.
Take `Cc1nc(-c2cccc(NC(=O)N3CCc4c(cnc5[nH]ncc45)C3)c2)no1`: the melting point is above 140 °C.
Turning to `O=c1[nH][nH]c(=O)n1CCOc1ccccc1`, the melting point was 187 to 189 °C.
In turn, `CC(C)(C)OC(=O)Nc1ccc2ccc(C#N)cc2c1` showed a melting point of 126 to 128 °C.
In turn, `COc1ccc(/C=C/c2ccncc2)cc1O` showed a melting point of 196 to 199 °C.
For the molecule `CC(C)(C)OC(=O)NCCNC(=O)c1cc(Cl)cc(Cl)n1`, the melting point lay in the range of 126 to 127 °C.
The molecule `COc1cc(CC(=O)O)ccc1OCc1nc(-c2ccco2)oc1C` had a melting point of 162 to 164 °C.
As for `CC1NC(=O)NN=C1c1ccc(OCC(=O)NCCN2CCN(S(C)(=O)=O)CC2)c(Cl)c1` (centres undefined), the figure is 236 to 238 °C.
On to `Cc1nc2c(N)nc3ccccc3c2n1OCc1ccccc1[N+](=O)[O-]`, for which the melting point lay within 215 to 217 °C.
In the case of `COc1c(O)cccc1C(=O)C1CCN(CCc2ccc(F)cc2)CC1`, the melting point lay within 100 to 101 °C.
In turn, `C(=C\c1nc(COc2cccc(CCCCn3ccnc3)c2)co1)/c1ccccc1` registered a melting point of 75 to 76 °C.
Molecule `CN(CCCNC(=O)NCCCOc1cccc(CN2CCCCC2)c1)CCN(Cc1ccc(F)cc1)c1ccccn1` came in with a melting point of 123 to 125 °C.
`O=C(Cl)COC(=O)c1ccccc1` gave a melting point of 25 to 26 °C.
As to `C#CCOc1ccc(C2=NC3=CCNC(=O)C3=N2)c(OC)c1`, the melting point fell in the range of 178 to 180 °C.
`O=c1oc(-c2cccc(C(F)(F)F)c2)ns1` yielded a melting point of 85 to 86.5 °C.
Regarding `CCOC(CNN)OCC`, the melting point fell in the range of 126 to 127 °C.
In the case of `CC1(O)CC(=O)OC(C=Cc2ccccc2)C1(C)Br` (centres undefined) it was 121 to 123 °C; in that of `CCOC(=O)c1noc(-c2ccc(Cl)cc2)n1`, 88 to 89 °C; in that of `CN(C(=O)Nc1ccsc1)c1cccc2cc(-c3nccs3)[nH]c12`, 266 °C.
Take `CCCCc1ccc(-c2ccc(OC)cc2F)nc1`: the melting point came to 23.3 °C.
`CC(C)C(=O)N[C@@H](CS)C(=O)O` came in with a melting point of 103 to 104 °C.
As for `C=CCOC(=O)c1ccc(CC(=O)Nc2ccc3c(c2)C(C)(C)CCC3(C)C)cc1`, the figure is 49 to 50 °C; as for `O=[N+]([O-])c1ccc(OC2OC(CO)C(O)C2O)cc1` (centres undefined), 156 to 158 °C.
On to `O=C1Cc2cc(Br)ccc2Oc2cc(O)cc(O)c21`, for which the melting point lay within 112 to 117 °C.
As for `COC(=O)c1ccc(N2CCSC2=N)c([N+](=O)[O-])c1`, the melting point is 156 °C.
For `CC#CCOc1ccc(S(=O)(=O)N[C@@H](C(=O)NO)C2CCC(O)CC2)cc1` (some centres undefined), the melting point was 180 to 182 °C.
Turning to `CCOC(=O)C(=O)N(CCN=[N+]=[N-])N=Cc1ccccc1`, the melting point was 59 to 61 °C.
In turn, `CCC1(C)C(=O)NN=C1c1ccc(-n2ccnc2)cc1` (centres undefined) returned a melting point of 86 to 88 °C.
The molecule `CCOC(=O)C(C(=O)OCC)c1cccc(C(=O)c2ccccc2)c1[N+](=O)[O-]` registered a melting point of 130 to 131 °C.
The molecule `CSc1nc(Oc2ccccc2)c(C(=O)O)c(Oc2ccccc2)n1` displayed a melting point of 97 to 98 °C.
`CCOP(=O)(Cc1ccc(C(=S)N2CCCc3ccccc32)cc1)OCC` yielded a melting point of 96 to 97 °C.
In turn, `CC(C)(C)OC(=O)N1CC[C@H]2c3c(-c4ccccc4F)cccc3N(C(=O)OC(C)(C)C)[C@H]2CC1` (relative stereo) had a melting point of 166 to 169 °C.
As for `O=C1CC[C@H]2N1CCN1C(=O)C[C@H]3CCCC[C@@]321` (relative stereo), the figure is 135 to 136 °C.
The molecule `O=C(O)c1nc2ccc(OCCCN3CCC(OC(c4ccccc4)c4ccccc4)CC3)nn2n1` came in with a melting point of 173 to 177 °C.
As for `O=[N+]([O-])c1ccc2c(c1)CCN(C[C@H](O)C(F)(F)F)CC2`, the figure is 82 to 85 °C; as for `COc1cc2ncnc(NC3=CC(=O)C(Oc4ccccc4)=CC3=O)c2cc1OC`, 228 to 234 °C; as for `CC1(C)CC(=O)Nc2cc(C(=O)Nc3ccccc3)ccc21`, 249 to 251 °C.
